Test results published in ChEMBL document CHEMBL1201862, “PubChem BioAssay data set” (2004).
Active and inactive are the calls of the source.

Legend:
[1] = P. falciparum Dd2 growth inhibitors, dose response, SYBR Green, cherry-picked samples (AID 1159567); type: functional, cell-based
[2] = HEK293 Cytotoxicity Assay Measured in Cell-Based System Using Plate Reader - 7071-01_Inhibitor_Dose_CherryPick_Activity_Set2.; type: functional
HEK293 = assay: HEK293T cell cytotoxicity, dose response, cytotoxicity control, ATP luminescence, cherry-pick samples (AID 687005); type: functional, cell-based; settings: Homo sapiens;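 also: cells exposed to compound for 48 hours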
[3] = HepG2 cell cytotoxicity, dose response, cytotoxicity control, cherry-picked samples (AID 1159577); type: functional, cell-based
[4] = HIV Env cell-cell fusion inhibitors, dose response, HIV entry, plate reader, dry powder (AID 687023); type: functional, cell-based
[5] = inhibitors of clade B AD8 Env fusion, dose response, cell-based, cherry-pick (AID 652062); type: functional;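 also: luciferase signal from cell-cell fusion driven by HIV-1 clade B AD8 Env; potency is for inhibitors of fusion seen as a drop in luminescence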
[6] = CEM21 cell cytotoxicity, dose response, cytotoxicity control, plate reader, dry powder (AID 687026); type: functional, cell-based
[7] = ZM109 Env clade C HIV-1 fusion inhibitors, dose response, HeLa effector, CEM target cells, luciferase, cherry-pick (AID 652058); type: functional, cell-based
[8] = inhibitors of HIV Env-driven cell fusion, dose response, cherry-pick (AID 652057); type: functional, cell-based
[9] = inhibitors of PGC1a acetylation in cells, dose response, cell-based, cherry-picked samples (AID 720514); type: functional;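 also: potency may reflect raised or lowered acetylation signal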
[10] = Late stage assay provider results from the probe development effort to identify inhibitors of the Plasmodium falciparum M18 Aspartyl Aminopeptidase (M18AAP): radiolabel-based cell-based dose response assay to identify compounds that inhibit P. falciparum growth in RBCs, Set 2..; type: functional
[11] = P. falciparum Dd2 growth inhibitors, dose response, SYBR Green, dry powder samples, set 4 (AID 1159572); type: functional, cell-based
[12] = P. falciparum Dd2 growth inhibitors, dose response, SYBR Green, dry powder samples, set 9 (AID 1159568); type: functional, cell-based
[13] = target: RNA-editing ligase 1, mitochondrial (Trypanosoma brucei brucei, UniProt P86926); assay: TbREL1 ligase inhibitors, dose response, biochemical, fluorescence, Trypanosoma brucei (AID 1117295); type: functional
[14] = HCT116 cell viability decrease, GSK3B pretreatment – CellTiter-Glo, IC50, dose response (AID 1117339); type: functional; settings: HCT-116
[15] = CellTiter-Glo luminescent dose response of DLD-1 viability loss (AID 1117352); type: functional
[16] = cytotoxicity toward HCT116 cells – cell-based, CellTiter-Glo luminescence, IC50, dose response (AID 1117332); type: functional; settings: HCT-116
[17] = HeLa 4N DNA content increase, dose response, cell-based, IC50 (AID 1117351); type: functional
[18] = cytotoxicity toward HT-29 cells – cell-based, CellTiter-Glo luminescence, IC50, dose response (AID 1117330); type: functional
[19] = RKO cell viability reduction, dose response, CellTiter-Glo luminescence (AID 1117322); type: functional
[20] = HeLa 2N DNA content increase, dose response, cell-based, IC50 (AID 1117349); type: functional
[21] = cytotoxicity toward Colo320 cells – cell-based, CellTiter-Glo luminescence, IC50, dose response (AID 1117334); type: functional; settings: COLO 320
[22] = Concentration-dependent survival of SW480 colon cancer line, luminescence detection with CellTiter-Glo, half-maximal inhibitory concentration (AID 1117338); type: functional
[23] = SNU-C1 cell viability reduction, dose response, CellTiter-Glo luminescence (AID 1117323); type: functional, cell-based

Sequence of RNA-editing ligase 1, mitochondrial (P86926 whole entry): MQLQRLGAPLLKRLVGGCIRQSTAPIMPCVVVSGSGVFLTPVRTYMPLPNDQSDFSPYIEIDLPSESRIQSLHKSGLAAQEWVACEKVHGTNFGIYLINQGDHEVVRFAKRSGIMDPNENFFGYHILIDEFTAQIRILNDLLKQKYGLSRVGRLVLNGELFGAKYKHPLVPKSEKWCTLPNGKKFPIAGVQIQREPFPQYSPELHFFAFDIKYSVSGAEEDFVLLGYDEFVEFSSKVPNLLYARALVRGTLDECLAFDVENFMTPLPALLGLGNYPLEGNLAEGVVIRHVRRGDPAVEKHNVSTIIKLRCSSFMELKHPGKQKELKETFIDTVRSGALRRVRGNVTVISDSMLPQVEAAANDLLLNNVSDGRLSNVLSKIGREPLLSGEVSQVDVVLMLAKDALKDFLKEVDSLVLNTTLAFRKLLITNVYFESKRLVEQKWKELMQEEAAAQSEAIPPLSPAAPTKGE

What does the source list for `C[C@H](CO)N1C[C@H](C)[C@H](CN(C)S(=O)(=O)c2ccc(F)cc2)Oc2ccc(NS(=O)(=O)c3ccc(Cl)cc3)cc2C1=O`?
AC50 [1]: 10 µM (active); AC50 [2]: 18.9 µM (active); AC50 (HEK293): 18.9 µM (active); AC50 [3]: > 39 µM (inactive)

For `CCCNC(=O)N1[C@H](C#N)[C@H](c2ccc(-c3cccnc3)cc2)[C@@H]1CO`, which AC50 [4] is on record?
The AC50 was 1.61 µM (active).

What about the AC50 [5] of the same molecule?
Its AC50 is 4.97 µM (active).

And the AC50 [6]?
The AC50 was > 70 µM (inactive).

What about the AC50 [7] of the same molecule?
Its AC50 is 10.2 µM (active).

What about the AC50 [8] of the same molecule?
The AC50 was 0.93 µM (active).

With `OC[C@@H]1[C@H](c2ccc(/C=C/c3ccccc3)cc2)[C@H]2CN(CCC(F)(F)F)CCCCN12` as the molecule, how does the AC50 [9] read?
The AC50 was 17.4 µM (active).

For `Oc1ccc(C2CCN(c3ccnc4ccccc34)C2)cc1O` (centres undefined), which IC50 [10] is on record?
Its IC50 is 0.93 µM (active).

Which AC50 [11] does the source give for `COc1ccc2c3c(n(C)c2c1)[C@H](CO)N(C(C)=O)CC31CCN(C(=O)Nc2ccccc2F)CC1` here?
Its AC50 is 6.63 µM (active).

With `C[C@H](CO)N1C[C@H](C)[C@@H](CN(C)C(=O)Nc2ccc(C(F)(F)F)cc2)Oc2c(NC(=O)c3ccc(-c4nccs4)cc3)cccc2C1=O` as the molecule, how does the AC50 [12] read?
Its AC50 is 6.41 µM (active).

For `COC(=O)C1=C(C)N(Cc2ccccc2C(F)(F)F)C(NCc2ccc(OC)cc2)=NC1c1cccc(F)c1` (centres undefined), which IC50 [13] is on record?
Its IC50 is > 96.6 µM (inactive).

Which results are given for `O=C(NOCC1CC1)c1ccc(F)c(F)c1Nc1ccc(I)cc1Cl` [CI-1040]?
IC50 [14]: 0.969 µM (active); IC50 [15]: 2.16 µM (active); IC50 [16]: 0.00179 µM (active); IC50 [17]: > 10 µM (inactive); IC50 [18]: 0.0263 µM (active); IC50 [19]: 0.00319 µM (active); IC50 [20]: > 10 µM (inactive); IC50 [21]: 0.848 µM (active); IC50 [22]: 0.00495 µM (active); IC50 [23]: 0.0171 µM (active)
